For one assay, the target named is T1, His6-TEV-PPARγ-(234-505) (Homo sapiens, UniProt P37231).
T1 construct: The His6-TEV-PPARγ-(234-505) protein for assay was expressed and purified; TEV cleavage site (N); made in house
T1 sequence (P37231 234-505): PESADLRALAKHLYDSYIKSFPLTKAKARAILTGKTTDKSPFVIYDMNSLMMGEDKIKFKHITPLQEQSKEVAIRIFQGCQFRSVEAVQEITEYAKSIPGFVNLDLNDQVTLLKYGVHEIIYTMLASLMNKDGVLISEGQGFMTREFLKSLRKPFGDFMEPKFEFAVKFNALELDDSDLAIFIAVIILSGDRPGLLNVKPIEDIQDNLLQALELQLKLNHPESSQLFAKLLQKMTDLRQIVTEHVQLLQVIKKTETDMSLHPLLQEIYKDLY
Put plainly: TR-FRET Assay to Measure Co-R Peptide Recruitment to PPARγ. To be noted: Co-R peptide (SMRT-ID2) recruitment; top final concentration 20 μM; read-out: TR-FRET i-Ag; AC50. The class given is biochemical. Summed up:
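Corepressor recruitment is measured by adding terbium-labeled anti-His antibody and FITC SMRT-ID2 peptide, at 5 and 200 nM final, after a 20-minute room-temperature protein–compound incubation. After one further hour, signal is converted to percent response between DMSO and 500 nM T0070907 wells.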

The test system of a further assay is UM-UC-9 engineered cells. The assay can be described thus: Cell proliferation / short-term viability assay, CellTiter-Glo 144 h. The class given is cell-based, human. As to conditions: read-out: CTGlo 144 h UMUC9.5, G150. Summed up:
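Viability read by CellTiter-Glo 2.0 luminescence at day 7 versus DMSO-vehicle wells and a T0 plate measured on day 0. Cells: UM-UC-9 engineered assay-ready stocks, 500 cells/well in high-glucose DMEM with 10% FBS, 37° C, 5% CO2.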

SMILES strings stand for the structures. Where two headings read alike, the source gives them in different places.

`COc1cc(-c2cc(C(=O)N3CCC(C(=O)NCc4ncc(C(F)(F)F)cc4Cl)CC3)n[nH]2)c(Cl)cn1` [Example 193, 1-(5-(5-chloro-2-methoxypyridin-4-yl)-1H-pyrazole-3-carbonyl)-N-((3-chloro-5-(trifluoromethyl)pyridin-2-yl)methyl)piperidine-4-carboxamide]: the AC50 at His6-TEV-PPARγ-(234-505) turned out to be 394 nM. Further, in the assay on UM-UC-9 engineered cells (Homo sapiens, UM-UC-9, 144 h), the IC50 came to 1200 nM.

For `COc1cc(-c2cc(C(=O)N3CC[C@H](C(=O)NCc4ncc(N5CC(C#N)C5)cc4Cl)CC34CC4)n[nH]2)c(F)cn1` [Example 393, (S)—N-((3-chloro-5-(3-cyanoazetidin-1-yl)pyridin-2-yl)methyl)-4-(5-(5-fluoro-2-methoxypyridin-4-yl)-1H-pyrazole-3-carbonyl)-4-azaspiro[2.5]octane-7-carboxamide], the AC50 on His6-TEV-PPARγ-(234-505) worked out at 9.2 nM. Besides, in the assay with UM-UC-9 engineered cells (Homo sapiens, UM-UC-9, 144 h), the IC50 is 106 nM.

Turning to `COc1cc(-c2cc(C(=O)N3CCC(C(=O)NCc4cc(F)ccc4Cl)CC3)n[nH]2)c(Cl)cn1` [Example 125, 1-(5-(5-chloro-2-methoxypyridin-4-yl)-1H-pyrazole-3-carbonyl)-N-(2-chloro-5-fluorobenzyl)piperidine-4-carboxamide], at His6-TEV-PPARγ-(234-505), the AC50 stood at 24.6 nM. Besides, in the assay with UM-UC-9 engineered cells (Homo sapiens, UM-UC-9, 144 h), the IC50 stood at 301 nM.

In the case of `COc1cc(-c2cc(C(=O)N3CC[C@H](C(=O)NCc4cnccc4C(F)(F)F)CC34CC4)n[nH]2)c(F)cn1` [Example 516, (S)-4-(5-(5-fluoro-2-methoxypyridin-4-yl)-1H-pyrazole-3-carbonyl)-N-((4-(trifluoromethyl)pyridin-3-yl)methyl)-4-azaspiro[2.5]octane-7-carboxamide], the AC50 at His6-TEV-PPARγ-(234-505) amounted to 3.3 nM. The IC50 in the assay with UM-UC-9 engineered cells (Homo sapiens, UM-UC-9, 144 h) stood at 10 nM.

In the case of `COc1cc(-c2cc(C(=O)N3CCC(C(=O)NCc4ccc5[nH]c(C)nc5c4)CC3)n[nH]2)c(Cl)cn1` [Example 215, 1-(5-(5-chloro-2-methoxypyridin-4-yl)-1H-pyrazole-3-carbonyl)-N-((2-methyl-1H-benzo[d]imidazol-5-yl)methyl)piperidine-4-carboxamide], the AC50 at His6-TEV-PPARγ-(234-505) is 265 nM. Moreover, the IC50 with UM-UC-9 engineered cells (Homo sapiens, UM-UC-9, 144 h) was more than 5000 nM.

`COc1cc(-c2cc(C(=O)N3CC[C@H](C(=O)NC4CCN(S(C)(=O)=O)CC4)CC34CC4)n[nH]2)c(F)cn1` [Example 420, (S)-4-(5-(5-fluoro-2-methoxypyridin-4-yl)-1H-pyrazole-3-carbonyl)-N-(1-(methylsulfonyl)piperidin-4-yl)-4-azaspiro[2.5]octane-7-carboxamide]: the AC50 on His6-TEV-PPARγ-(234-505) was 231 nM. The IC50 in the assay with UM-UC-9 engineered cells (Homo sapiens, UM-UC-9, 144 h) was determined as 1370 nM.

For the compound `CCN1CC(NC(=O)[C@H]2CCN(C(=O)c3cc(-c4cc(OC)ncc4F)[nH]n3)C3(CC3)C2)CCC12COC2` (stereo partly drawn) [Example 497, (7S)—N-(5-ethyl-2-oxa-5-azaspiro[3.5]nonan-7-yl)-4-(5-(5-fluoro-2-methoxypyridin-4-yl)-1H-pyrazole-3-carbonyl)-4-azaspiro[2.5]octane-7-carboxamide], the AC50 on His6-TEV-PPARγ-(234-505) was 87.7 nM. Moreover, in the assay with UM-UC-9 engineered cells (Homo sapiens, UM-UC-9, 144 h), the IC50 was determined as 645 nM.

With `COc1cc(-c2cc(C(=O)N3CC[C@H](C(=O)NCc4nc(N5C[C@@H](C)N[C@@H](C)C5)oc4C(F)(F)F)CC34CC4)n[nH]2)c(F)cn1` [Example 482, (S)—N-((2-((3S,5R)-3,5-dimethylpiperazin-1-yl)-5-(trifluoromethyl)oxazol-4-yl)methyl)-4-(5-(5-fluoro-2-methoxypyridin-4-yl)-1H-pyrazole-3-carbonyl)-4-azaspiro[2.5]octane-7-carboxamide], the AC50 on His6-TEV-PPARγ-(234-505) is 29.5 nM. Besides, the IC50 with UM-UC-9 engineered cells (Homo sapiens, UM-UC-9, 144 h) was found to be 270 nM.

Consider `COc1cc(-c2cc(C(=O)N3CC[C@H](C(=O)NC(C)c4cc5n(n4)CCN(C)C5)CC34CC4)n[nH]2)c(F)cn1` (single isomer, unassigned) [Example 475-B], for which the AC50 at His6-TEV-PPARγ-(234-505) was 102 nM. Besides, the IC50 in the assay on UM-UC-9 engineered cells came to 583 nM.

As to `CCc1cc(-c2cc(C(=O)N3[C@@H]4CC[C@H]3C[C@H](C(=O)N[C@H]3CC[C@@](O)(C(F)(F)F)CC3)C4)n[nH]2)ccn1` [Example 316, (1R,3s,5S)-8-(5-(2-ethylpyridin-4-yl)-1H-pyrazole-3-carbonyl)-N-((1r,4R)-4-hydroxy-4-(trifluoromethyl)cyclohexyl)-8-azabicyclo[3.2.1]octane-3-carboxamide], the AC50 at His6-TEV-PPARγ-(234-505) was 67.9 nM. Also, the IC50 in the assay with UM-UC-9 engineered cells (Homo sapiens, UM-UC-9, 144 h) worked out at 3390 nM.

Regarding `COc1cc(-c2cc(C(=O)N3CC[C@H](C(=O)NC4CCN(c5cnc(C)nc5)C4)CC34CC4)n[nH]2)c(F)cn1` (single isomer, unassigned) [Example 453-B], the AC50 on His6-TEV-PPARγ-(234-505) is 8.2 nM. Besides, in the assay on UM-UC-9 engineered cells, the IC50 turned out to be 398 nM.

As to `COc1cc(-c2cc(C(=O)N3CC[C@@H](C(=O)NCc4cccc(Cl)c4)CC3(C)C)n[nH]2)c(Cl)cn1` (single isomer, unassigned) [Example 255-B], the AC50 on His6-TEV-PPARγ-(234-505) is 1760 nM. Besides, the IC50 in the assay on UM-UC-9 engineered cells (Homo sapiens, UM-UC-9, 144 h) amounted to 4120 nM.

As for `CO[C@]1(C(F)(F)F)CC[C@@H](NC(=O)[C@@H]2CCN(C(=O)c3cc(-c4cc(C)ncn4)[nH]n3)C3(CC3)C2)CC1` (single isomer, unassigned) [Example 309-C], the AC50 on His6-TEV-PPARγ-(234-505) amounted to 720 nM. Moreover, the IC50 with UM-UC-9 engineered cells (Homo sapiens, UM-UC-9, 144 h) turned out to be 6200 nM.

With `CCc1cc(-c2cc(C(=O)N3CCC(C(=O)NCc4ncc(F)cc4Cl)CC34CC4)n[nH]2)c(F)cn1` (single isomer, unassigned) [Example 483-A], the AC50 on His6-TEV-PPARγ-(234-505) was 216 nM. Also, the IC50 in the assay with UM-UC-9 engineered cells was found to be 1520 nM.

For the compound `COc1cc(-c2cc(C(=O)N3CC[C@@H](C(=O)NCc4ncc(Cl)cn4)CC34CC4)n[nH]2)c(F)cn1` [Example 413, (R)—N-((5-chloropyrimidin-2-yl)methyl)-4-(5-(5-fluoro-2-methoxypyridin-4-yl)-1H-pyrazole-3-carbonyl)-4-azaspiro[2.5]octane-7-carboxamide], the AC50 on His6-TEV-PPARγ-(234-505) was 15.2 nM. Besides, in the assay on UM-UC-9 engineered cells (Homo sapiens, UM-UC-9, 144 h), the IC50 was 55 nM.

In the case of `COc1cc(-c2cc(C(=O)N3CCC(C(=O)NCc4c[nH]c5ncccc45)CC3)n[nH]2)c(Cl)cn1` [Example 202, N-((1H-pyrrolo[2,3-b]pyridin-3-yl)methyl)-1-(5-(5-chloro-2-methoxypyridin-4-yl)-1H-pyrazole-3-carbonyl)piperidine-4-carboxamide], the AC50 at His6-TEV-PPARγ-(234-505) was found to be 136 nM. Also, the IC50 in the assay on UM-UC-9 engineered cells (Homo sapiens, UM-UC-9, 144 h) came out at 1590 nM.

Regarding `COc1cc(-c2cc(C(=O)N3CC[C@H](C(=O)NCC45COC(C(F)(F)F)(C4)C5)CC34CC4)n[nH]2)c(F)cn1` [Example 443, (S)-4-(5-(5-fluoro-2-methoxypyridin-4-yl)-1H-pyrazole-3-carbonyl)-N-((1-(trifluoromethyl)-2-oxabicyclo[2.1.1]hexan-4-yl)methyl)-4-azaspiro[2.5]octane-7-carboxamide], the AC50 on His6-TEV-PPARγ-(234-505) was found to be 21.4 nM. Moreover, the IC50 with UM-UC-9 engineered cells (Homo sapiens, UM-UC-9, 144 h) was determined as 40.3 nM.

`COc1cc(-c2cc(C(=O)N3CC[C@H](C(=O)NCc4cccc(Cl)c4)CC34CC4)n[nH]2)c(Cl)cn1` (single isomer, unassigned) [Example 245-A]: the AC50 on His6-TEV-PPARγ-(234-505) is 8.3 nM. The IC50 in the assay with UM-UC-9 engineered cells (Homo sapiens, UM-UC-9, 144 h) was found to be 4.1 nM.

In the case of `COc1cc(-c2cc(C(=O)N3CC[C@H](C(=O)NCc4cccc(Cl)c4)CC3(C)C)n[nH]2)c(Cl)cn1` (single isomer, unassigned) [Example 255-A], the AC50 on His6-TEV-PPARγ-(234-505) came to 49.6 nM. Besides, the IC50 in the assay with UM-UC-9 engineered cells (Homo sapiens, UM-UC-9, 144 h) amounted to 141 nM.

Turning to `COc1cc(-c2cc(C(=O)N3CC[C@H](C(=O)NC45COC(CO)(C4)C5)CC34CC4)n[nH]2)c(F)cn1` [Example 520, (S)-4-(5-(5-fluoro-2-methoxypyridin-4-yl)-1H-pyrazole-3-carbonyl)-N-(1-(hydroxymethyl)-2-oxabicyclo[2.1.1]hexan-4-yl)-4-azaspiro[2,5]octane-7-carboxamide], the AC50 at His6-TEV-PPARγ-(234-505) worked out at 784 nM. Further, in the assay with UM-UC-9 engineered cells (Homo sapiens, UM-UC-9, 144 h), the IC50 is more than 10000 nM.

For the origin of these results see US12606541B2, “PPARg modulators and methods of use” (Eisai R&D Management Co., Ltd., priority 2020, dated 2026).
